“And” between values parts separate entries of the source, which are not always exact repeats. Equal values may be shown once.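 Step 1: Grow cells in 96-well plates. Step 2: Expose to compound for 48 hours at 5 concentrations. Step 3: Interpolate endpoints linearly; if unreached, use highest concentration. Abbreviation: GI50, concentration required for 50% inhibition of growth. At the TGI there is no net growth.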
Experiments:
Test in all cases: growth of human tumour cells (NCI), 48 h
NCI-H522 lung = tested on: NCI-H522 lung
SNB-19 CNS = tested on: SNB-19 CNS
BT-549 breast = tested on: BT-549 breast
A549 NSCLC = tested on: A549 NSCLC
RPMI-8226 leukemia = tested on: RPMI-8226 leukemia
SN12C renal = tested on: SN12C renal
KM12 colon = tested on: KM12 colon
UACC-257 melanoma = tested on: UACC-257 melanoma
OVCAR-3 ovarian = tested on: OVCAR-3 ovarian
MDA-MB-231 breast = tested on: MDA-MB-231 breast

CC(C)(C)c1ccc(O)c(Br)c1
TGI (NCI-H522 lung): > 100 µM | TGI (SNB-19 CNS): > 100 µM | TGI (BT-549 breast): > 100 µM | TGI (A549 NSCLC): > 100 µM | TGI (RPMI-8226 leukemia): > 100 µM | TGI (SN12C renal): > 100 µM | TGI (KM12 colon): > 100 µM | TGI (UACC-257 melanoma): > 100 µM | TGI (OVCAR-3 ovarian): > 100 µM | TGI (MDA-MB-231 breast): > 100 µM

CC(C)(C)OC(=O)N1C(C2=COc3ccccc3O2)=COc2cccnc21
TGI (NCI-H522 lung): 3.49 µM | TGI (BT-549 breast): 5.42 µM | TGI (A549 NSCLC): 4.38 µM | TGI (RPMI-8226 leukemia): 4.43 µM | TGI (SN12C renal): 3.37 µM | TGI (KM12 colon): 3.97 µM | TGI (UACC-257 melanoma): 3.92 µM | TGI (OVCAR-3 ovarian): 3.31 µM | TGI (MDA-MB-231 breast): 4.01 µM

CC(Br)C(=O)c1ccc2cc(Br)c3ccccc3c2c1 (centres undefined)
TGI (NCI-H522 lung): 16.7 µM | TGI (SNB-19 CNS): 32.7 µM | TGI (BT-549 breast): 28.7 µM | TGI (A549 NSCLC): 39.1 µM | TGI (RPMI-8226 leukemia): 21.2 µM | TGI (SN12C renal): 23.3 µM | TGI (KM12 colon): 32.5 µM | TGI (UACC-257 melanoma): 31.5 µM | TGI (OVCAR-3 ovarian): 26.6 µM | TGI (MDA-MB-231 breast): 30.2 µM

Cc1cc(O)c2c(c1O)C(=O)c1c(O)ccc(O)c1C2=O
TGI (NCI-H522 lung): > 100 µM | TGI (SNB-19 CNS): > 100 µM | TGI (BT-549 breast): > 100 µM | TGI (A549 NSCLC): > 100 µM | TGI (RPMI-8226 leukemia): > 100 µM | TGI (SN12C renal): > 100 µM | TGI (KM12 colon): > 100 µM | TGI (UACC-257 melanoma): > 100 µM | TGI (OVCAR-3 ovarian): > 100 µM | TGI (MDA-MB-231 breast): > 100 µM

O=P(O)(O)OP(=O)(O)O
TGI (NCI-H522 lung): > 100 µM | TGI (SNB-19 CNS): > 100 µM | TGI (BT-549 breast): > 100 µM | TGI (A549 NSCLC): > 100 µM | TGI (RPMI-8226 leukemia): > 100 µM | TGI (SN12C renal): > 100 µM | TGI (KM12 colon): > 100 µM | TGI (UACC-257 melanoma): > 100 µM | TGI (OVCAR-3 ovarian): > 100 µM | TGI (MDA-MB-231 breast): > 100 µM

COc1cccc(/C=N/[N-]C(N)=O)c1[O-].[Cu+2].[OH3+].c1cnc2c(c1)ccc1cccnc12
TGI (SNB-19 CNS): 34.2 µM | TGI (A549 NSCLC): 28.7 µM | TGI (RPMI-8226 leukemia): 91.4 µM | TGI (SN12C renal): > 100 µM | TGI (KM12 colon): 47.1 µM | TGI (UACC-257 melanoma): 34.5 µM | TGI (OVCAR-3 ovarian): 36.1 µM

O=S1c2ccccc2N=C(c2ccc3ccccc3c2)CC1c1ccccc1 (centres undefined)
TGI (NCI-H522 lung): 34.9 µM | TGI (SNB-19 CNS): 34.9 µM | TGI (A549 NSCLC): 41.3 µM | TGI (RPMI-8226 leukemia): 94.4 µM | TGI (SN12C renal): 73.9 µM | TGI (KM12 colon): 28.8 µM | TGI (UACC-257 melanoma): > 100 µM

O=c1oc2c(ccc3occc32)c(N2CCCCC2)c1-c1ccccc1
TGI (NCI-H522 lung): > 100 µM | TGI (SNB-19 CNS): > 100 µM | TGI (A549 NSCLC): > 100 µM | TGI (SN12C renal): > 100 µM | TGI (KM12 colon): > 100 µM | TGI (OVCAR-3 ovarian): > 100 µM

C[C@H](Nc1ccc(C#N)n(C)c1=O)c1cc2cc(Cl)ccc2[nH]c1=O
GI50 (NCI-H522 lung): 29.6 µM | TGI (NCI-H522 lung): > 100 µM | GI50 (SNB-19 CNS): 32.5 µM | TGI (SNB-19 CNS): > 100 µM | GI50 (BT-549 breast): 12.2 µM | TGI (BT-549 breast): 70.1 µM | GI50 (A549 NSCLC): 24.3 µM | TGI (A549 NSCLC): > 100 µM | GI50 (RPMI-8226 leukemia): 14.2 µM | TGI (RPMI-8226 leukemia): 49.3 µM | GI50 (SN12C renal): 26.7 µM | TGI (SN12C renal): > 100 µM | GI50 (KM12 colon): 38.3 µM | TGI (KM12 colon): > 100 µM | GI50 (UACC-257 melanoma): 32.6 µM | TGI (UACC-257 melanoma): > 100 µM | GI50 (OVCAR-3 ovarian): 24.1 µM | TGI (OVCAR-3 ovarian): > 100 µM | GI50 (MDA-MB-231 breast): 23.2 µM | TGI (MDA-MB-231 breast): 98.4 µM

Cc1cc(N2CCOCC2)nc(N(CCCNc2ccnc3cc(Cl)ccc23)Cc2ccc3c(c2)OCO3)n1
GI50 (SNB-19 CNS): 4.18 µM | TGI (SNB-19 CNS): 35.7 µM | GI50 (A549 NSCLC): 1.61 µM | TGI (A549 NSCLC): 3.12 µM | GI50 (RPMI-8226 leukemia): 1.45 µM | TGI (RPMI-8226 leukemia): 4 µM | GI50 (UACC-257 melanoma): 1.99 µM | TGI (UACC-257 melanoma): 3.48 µM | GI50 (OVCAR-3 ovarian): 0.253 µM | TGI (OVCAR-3 ovarian): 0.738 µM | GI50 (MDA-MB-231 breast): 1.68 µM | TGI (MDA-MB-231 breast): 3.32 µM

CCN(CC)/[N+]([O-])=N/OC
TGI (NCI-H522 lung): > 100 µM | TGI (SNB-19 CNS): > 100 µM | TGI (A549 NSCLC): > 100 µM | TGI (SN12C renal): > 100 µM | TGI (KM12 colon): > 100 µM | TGI (UACC-257 melanoma): > 100 µM | TGI (OVCAR-3 ovarian): > 100 µM

COC1OC(C(=O)CP(=O)(OC)OC)C(OCc2ccccc2)C(OCc2ccccc2)C1OCc1ccccc1 (centres undefined)
TGI (NCI-H522 lung): 29.5 µM and 32.2 µM | TGI (SNB-19 CNS): 29.7 µM and 30.3 µM | TGI (BT-549 breast): 32 µM and 33.8 µM | TGI (A549 NSCLC): 31.2 µM and 31.9 µM | TGI (SN12C renal): 30.1 µM and 30 µM | TGI (KM12 colon): 36.6 µM and 35.7 µM | TGI (UACC-257 melanoma): 29.3 µM and 30.1 µM | TGI (OVCAR-3 ovarian): 30.3 µM and 28.7 µM | TGI (MDA-MB-231 breast): 31.7 µM and 29.9 µM

O=C(CSc1nc2ccc(Cl)cc2c(=O)n1-c1ccccc1)N=Nc1c(O)[nH]c2ccc(F)cc12
TGI (NCI-H522 lung): 3.86 µM | TGI (SNB-19 CNS): 10.5 µM | TGI (BT-549 breast): 4.11 µM | TGI (A549 NSCLC): 5.42 µM | TGI (RPMI-8226 leukemia): 3.9 µM | TGI (SN12C renal): 4.67 µM | TGI (KM12 colon): 11.8 µM | TGI (UACC-257 melanoma): 10.6 µM | TGI (OVCAR-3 ovarian): 4 µM | TGI (MDA-MB-231 breast): 5.82 µM

CCCCCCOC(=O)C(N)Cc1ccc(OC)cc1 (centres undefined)
TGI (NCI-H522 lung): > 100 µM | TGI (SNB-19 CNS): > 100 µM | TGI (BT-549 breast): > 100 µM | TGI (A549 NSCLC): > 100 µM | TGI (SN12C renal): > 100 µM | TGI (KM12 colon): > 100 µM | TGI (UACC-257 melanoma): > 100 µM | TGI (OVCAR-3 ovarian): > 100 µM | TGI (MDA-MB-231 breast): > 100 µM

C/C(=C\CNc1ncnc2nc(Cl)[nH]c12)CO
TGI (NCI-H522 lung): > 100 µM | TGI (SNB-19 CNS): > 100 µM | TGI (A549 NSCLC): > 100 µM | TGI (RPMI-8226 leukemia): > 100 µM | TGI (SN12C renal): > 100 µM | TGI (KM12 colon): > 100 µM | TGI (UACC-257 melanoma): > 100 µM | TGI (OVCAR-3 ovarian): > 100 µM | TGI (MDA-MB-231 breast): > 100 µM

O=CC(O)C(O)C(O)COc1cc(CO)cc2c1C(=O)c1ccccc1C2=O (centres undefined)
TGI (NCI-H522 lung): > 100 µM | TGI (SNB-19 CNS): > 100 µM | TGI (A549 NSCLC): > 100 µM | TGI (RPMI-8226 leukemia): > 100 µM | TGI (SN12C renal): > 100 µM | TGI (KM12 colon): > 100 µM | TGI (UACC-257 melanoma): > 100 µM | TGI (OVCAR-3 ovarian): > 100 µM

COC(=N)C(C)C
TGI (NCI-H522 lung): > 100 µM | TGI (SNB-19 CNS): > 100 µM | TGI (A549 NSCLC): > 100 µM | TGI (RPMI-8226 leukemia): > 100 µM | TGI (SN12C renal): > 100 µM | TGI (KM12 colon): > 100 µM | TGI (UACC-257 melanoma): > 100 µM | TGI (OVCAR-3 ovarian): > 100 µM

CC(C)c1ccc2c(c1)[C@@]1(C)CC[C@H](C)C(C)(C)C1CC2 (some centres undefined)
TGI (NCI-H522 lung): 75.3 µM | TGI (SNB-19 CNS): 35.3 µM | TGI (BT-549 breast): 35 µM | TGI (A549 NSCLC): 32.1 µM | TGI (RPMI-8226 leukemia): 41.1 µM | TGI (SN12C renal): 31.8 µM | TGI (KM12 colon): 38.4 µM | TGI (UACC-257 melanoma): 36.7 µM | TGI (OVCAR-3 ovarian): 63 µM | TGI (MDA-MB-231 breast): 34 µM

Clc1ccc(NCc2nnc(COc3ccc(OCc4nnc(CNc5ccc(Cl)cc5)o4)c(Cl)c3)o2)cc1
TGI (NCI-H522 lung): 46.5 µM | TGI (SNB-19 CNS): > 100 µM | TGI (BT-549 breast): > 100 µM | TGI (A549 NSCLC): > 100 µM | TGI (RPMI-8226 leukemia): 36.9 µM | TGI (SN12C renal): > 100 µM | TGI (KM12 colon): > 100 µM | TGI (UACC-257 melanoma): > 100 µM | TGI (OVCAR-3 ovarian): 93.5 µM | TGI (MDA-MB-231 breast): 63.3 µM

NCCCCN
TGI (NCI-H522 lung): > 100 µM | TGI (SNB-19 CNS): > 100 µM | TGI (BT-549 breast): > 100 µM | TGI (A549 NSCLC): > 100 µM | TGI (KM12 colon): 38.6 µM | TGI (UACC-257 melanoma): > 100 µM | TGI (OVCAR-3 ovarian): > 100 µM | TGI (MDA-MB-231 breast): > 100 µM

CN(C)C/C=C(/c1ccc(Br)cc1)c1cccnc1
TGI (NCI-H522 lung): > 100 µM | TGI (SNB-19 CNS): > 100 µM | TGI (BT-549 breast): > 100 µM | TGI (A549 NSCLC): > 100 µM | TGI (RPMI-8226 leukemia): > 100 µM | TGI (SN12C renal): > 100 µM | TGI (KM12 colon): > 100 µM | TGI (UACC-257 melanoma): 35.3 µM | TGI (OVCAR-3 ovarian): > 100 µM | TGI (MDA-MB-231 breast): > 100 µM
